Read-outs that look alike come from different tables or passages of the source.
Tests used:
[1] = test system: mitochondrial membrane potential; conditions: 1 μM FCCP; cited from earlier work
K695sw cells [2] = test: Quantification of cellular ATP levels (luciferase/luciferin); type: cell-based, Human; conditions: various concentrations, 30 minutes or 4 hours
Procedure: 20 μl aliqouts of ATP standards and samples were then assayed for ATP content using a luciferase/luciferin ATP determination kit (A-6608, Molecular Probes, Eugene, Oreg.). ATP-dependent luminescence was quantified using an Optocomp® II luminometer (MGM Instruments, Hamden, Conn.) and ATP levels were determined by extrapolation from a standard curve. […] As a positive control, the effect of combined treatment with various concentrations of sodium azide and 2-deoxy-D-glucose (NaA/DG) was also examined in these studies.

K695 cells [3] = test: Lysosomal function: Lysosensor Yellow/Blue DND-160 uptake; type: cell-based, Human; conditions: FCCP 5 μM and 500 nM, baf A1 1 μM, NH4Cl 20 mM, 4 hrs
Procedure: (§1) Endosomal function was assessed by the fluorometric quantitation of the receptor-mediated uptake of both Texas Red and fluoroscein labelled transferrin (Molecular Probes, Eugene, Oreg.)(33-35). K695 cells were maintained as exposed to various treatments as mentioned with the exception that cells were plated at a density 200,000 cells/well in 24-well plates (Corning™). Twenty-four hours after plating, cells were exposed to various treatments in DMEM supplemented with sodium pyruvate (1 mM) and 10% fetal bovine serum. At the same time as drug exposures, both transferrin-Texas Red (Tf-Tx) and transferrin-fluoroscein (Tf-F) (10 μl/ml media of 5 mg/ml stocks in PBS) were added to each well and incubated for 4 hours at 37° C. Each well was then gently washed three times with warm media and uptake of fluorescent probes quantitated at 37° C. using a Cytofluor™ 2350 fluorometric plate reader (Millipore, Mississauga, ON). Quantitation of the non-pH-dependent Tf-Tx fluorescence and the pH-dependent Tf-F fluorescence was determined using excitation filters of 590 nm (bandwidth=20 nm); 485 nm (bandwidth=20 nm) and emission filters of 645 nm (bandwidth=40 nm); 530 nm (bandwidth=25 nm), respectively. Similarly, Lysosomal function was assayed by the uptake of the fluorescent probe, Lysosensor™ Yellow/Blue DND-160 (Molecular Probes, Eugene, Oreg.)(36). Assay of Lysosensor™ uptake was performed in an identical manner to that of the fluorescent labelled transferrin conjugates with the exception that the addition of 10 μl/ml media of Lysosensor™ was taken from a 1 mM stock solution in DMSO. Quantitation of the non-pH-dependent blue fluorescence and the pH-dependent yellow fluorescence was determined using an excitation filter of 360 nm (bandwidth=40 nm) and emission filters of 460 mn (bandwidth=40 nm) and 530 nm (bandwidth =25 nm), respectively. For all three probes examined, relative fluorescence was obtained from subtraction from sister wells which had not been exposed to fluorophores. […]

K695sw cells [4] = conditions: 5 μM, 500 nM or 50 nM, 24 hours
Procedure: Cell viability was quantified based on the exclusion of the membrane impermeant probe, YO-PRO (Molecular Probes, Eugene, Oreg.). K695sw cells were maintained and exposed to vehicle or various concentrations of FCCP as described above with the exception that cells were plated at a density of 20,000 cells/well in 96-well plates (Falcon®). Twenty-four hours after plating, cells were exposed to various treatments in DMEM supplemented with sodium pyruvate (1 mM) and 10% fetal bovine serum. At the same time as drug exposures, YO-PRO (4 μM) was added to each well and its uptake quantified every 30 minutes for 1 day at 37° C. using a Cytofluor™ 2350 fluorometric plate reader (Millipore, Mississauga, ON). As a positive control, all wells were exposed to 0.1% Triton X-100 at the end of the experiment.

cellular ATP levels = conditions: 30 μM FCCP for 2 hours; cited from earlier work
K695 cells [5] = test: Endosomal function: uptake of Tf-Tx and Tf-F labelled transferrin; type: cell-based, Human; conditions: 4 hrs; for impairment of endosomal function (decrease in Tf-Tx and Tf-F signals): baf A1 1 μM, NH4Cl 20 mM
Procedure: as §1

[6] = test system: APP carrying the AD-linked double "Swedish" mutation (K695sw cells); conditions: for Aβ release: FCCP 5 μM, 500 nM, 50 nM
Procedure: (§2) Human embryonic kidney (HEK) 293 cells stably transfected with either wild-type APP695 (K695 cells) or APP carrying the AD-linked double “Swedish” mutation (K695sw cells)(30) were cultured in DMEM supplemented with sodium pyruvate (1 mM) and 10% fetal calf serum as previously described (31). Cells were plated at 1,000,000 cells per well in 35 mm^2 culture dishes (Corning™) 24 hours prior to drug exposure. Preceding the addition of drugs, cultures are washed once with warm PBS (37° C.) and then exposed to various treatments in DMEM supplemented with sodium pyruvate (1 mM). Cultures were then exposed to either control media, vehicle (0.05% ethanol), or varying concentrations of FCCP (5 μM, 500 nM, 50 nM). Either 30 minutes or 4 hours after the addition of drugs, the media was removed, the cultures washed once with ice-cold PBS, and then harvested in 100 μl of ice-cold lysis buffer containing 20 mM MOPS (pH 7.2), 5 mM EDTA, 0.01% NP-40, 75 mM β-glycerol phosphate, […], […], 50 mM phosphatase substrate, […], and 1 mg/ml each of leupeptin, aprotinin and pepstatin.
(§3) To examine extracellular APP fragments, the media was retained and centrifuged at 4° C. for 10 min at 16,000 X g to remove cellular debris. Extracellular protein was then precipitated by 10% trichloroacetic acid as previously described (31). Subsequently, secreted APPsα was determined by 10% Tris-Glycine SDS-PAGE Western Blot analysis using the monoclonal antibody WO-2, generated against the first 16 amino acids of the N-terminal region of Aβ (32). Similarly, extracellular Aβ release was examined by 16% Tris-Tricine SDS-PAGE Western Blot analysis using the WO-2 antibody (32). For examination of intracellular APP fragments, cultures were harvested in ice-cold lysis buffer and then sonicated for 8 seconds on ice. Cellular protein levels were quantified using the BCA protein assay (Pierce, Rockford, Ill.) and 10 μg of cellular protein were then separated by either 10% Tris-Glycine or 16% Tris-Tricine SDS-PAGE. Intracellular C100 and total APP were quantitated, respectively, by 16% Tris-Tricine Western Blot analysis using the WO-2 antibody and 10% Tris-Glycine Western Blot analysis using an anti-APP N-terminal antibody (22C11, Boehringer Mannheim, Laval, QC). A diagram of the catabolic fragments of APP and the epitopes to which each antibody binds is depicted in FIG. 1. […] The wavy line represents the plasma membrane. The enzyme α-secretase (α-left) cleaves APP within the Aβ sequence (represented by the heavy line), resulting in release of the ectodomain fragment known as APPsα. The enzymes β and γ secretase (β, γ, right) sequentially cleave APP on either side of the Aβ sequence. β secretase cleavage results in the release of the ectodomain fragment known as APPsβ and production of the cellular fragment known as C100; following γ-secretase cleavage, extracellular Aβ is released. Probing the cellular fraction with antibody 22C11 identifies total cellular APP. Probing the cellular fraction with WO-2 identifies C100 (distinguished by molecular weight). Probing the extracellular fraction with WO-2 identifies both APPsα and Aβ (distinguished by molecular weight).
(§4) Cellular (C100 and total APP) and extracellular (APPsα and Aβ ) APP catabolic fragments were separated using SDS PAGE with either 10% Tris-Glycine (for APPsα and total APP) or 16% Tris-Tricine (for C100 and Aβ) gels. Following electrophoretic separation, proteins were transferred to nitrocellulose membranes and probed with either the monoclonal antibody WO-2 to detect C100, APPsα and Aβ, or 22C11 to detect total cellular APP. Immunoreactive bands were visualized using ECL detection (Amersham, Oakville, ON) and analyzed by standard autoradiographic and densitometric techniques as described (31).

[7] = test system: wild-type APP695 (K695 cells); conditions: 4 hours
Procedure: as §2, §3, §4

APP = conditions: background; NH4Cl at high concentrations; cited from earlier work
[8] = test system: cells expressing wild-type APP (K695 cells); conditions: previous studies; cited from earlier work
K695sw cells [9] = conditions: previous studies; cited from earlier work

Compound: N#CC(C#N)=NNc1ccc(OC(F)(F)F)cc1 [FCCP, carbonyl cyanide p-(trifluoromethoxy)phenylhydrazone]
- mitochondrial membrane potential [1]: sufficient to alter mitochondrial membrane potential
- cellular ATP levels (K695sw cells [2]): did not alter cellular ATP levels at any of the concentrations or time points measured
- lysosomal function (Lysosensor fluorescence) (K695 cells [3]): reductions in lysosomal function, albeit not as profound
- cell death as measured by membrane exclusion (YO-PRO) (K695sw cells [4]): no increase in cell death
- cellular ATP levels (cellular ATP levels): sufficient to modestly decrease cellular ATP levels
- endosomal functioning (Tf-Tx and Tf-F signals) (K695 cells [5]; FCCP 5 μM and 500 nM): did not significantly alter endosomal functioning
- production of the ectodomain fragment APPsα (APPsα release) ([6]; 30 min and 4 hours): only affected by 4 hour exposure to 5 μM FCCP
- formation of the C100 fragment (cellular C100) ([6]; 4 hours): concentration-dependent decrease in the formation of the C100 fragment
- maturation of APP via N'/O' linked glycosylation ([6]; 4 hours): neither total cellular levels of APP nor the maturation of APP via N′/O′ linked glycosylation were affected
- total cellular levels of APP ([6]; 4 hours): neither total cellular levels of APP nor the maturation of APP via N′/O′ linked glycosylation were affected
- Aβ release ([6]; 30 min): concentration-dependent decrease in Aβ release
- Aβ release ([6]; 4 hours): decreases in Aβ release were even more pronounced
- APPsα production [7]: marked concentration-dependent decrease in APPsα production
- Aβ production [7]: clearly inhibited Aβ production in a concentration-dependent manner
- maturation of APP [7]: unaffected
- total levels of cellular APP [7]: unaffected

Compound: Cl.N [NH4Cl, ammonium chloride]
- APP proteolytic processing / APP catabolism (APP): decrease APP proteolytic processing
- lysosomal function (Lysosensor fluorescence) (K695 cells [3]): profound reductions in lysosomal functioning
- impairment of endosomal function (decrease in Tf-Tx and Tf-F signals) (K695 cells [5]): approximately 50%

Compound: CO/C1=C\C(C)=C\[C@@H](C)[C@@H](O)[C@@H](C)C/C(C)=C/C=C/[C@H](OC)[C@@H]([C@@H](C)[C@@H](O)[C@H](C)[C@@]2(O)C[C@@H](O)[C@H](C)[C@@H](C(C)C)O2)OC1=O [baf A1, bafilomycin A1]
- APP proteolytic processing / APP catabolism (APP): alterations in APP catabolism which are both cell-type and APP mutation specific
- Aβ production [8]: lack of effect
- lysosomal function (Lysosensor fluorescence) (K695 cells [3]): profound reductions in lysosomal functioning
- Aβ production (K695sw cells [9]): reduced Aβ production
- impairment of endosomal function (decrease in Tf-Tx and Tf-F signals) (K695 cells [5]): approximately 50%

Compound: CC[C@@]1([C@@H]2O[C@@H]([C@H]3O[C@@](O)(CO)[C@H](C)C[C@@H]3C)C[C@@H]2C)CC[C@H]([C@]2(C)CC[C@]3(C[C@H](O)[C@@H](C)[C@@H]([C@@H](C)[C@@H](OC)[C@H](C)C(=O)O)O3)O2)O1 [monensin]
- APP proteolytic processing / APP catabolism (APP): decrease APP proteolytic processing
